From ChEMBL document CHEMBL1145220, “Design and synthesis of highly active Alzheimer's beta-secretase (BACE1) inhibitors, KMI-420 and KMI-429, with enhanced chemical stability” (Bioorg Med Chem Lett, 2005)
Numbered stars: 1 amine (or outer) side, 2 acyl side, 3 side chain; on linkers, the order of the positions; unused ones are H or OH. Square brackets hold non-standard residues; d marks the D form. Peptide text beside a SMILES is read from it. * marks the point of attachment. β3hPhe(2R-OH) = O=C([C@H](O)[C@H](Cc1ccccc1)N[*:1])[*:2]; Tetrazole5carbonyl = O=C(c1nn[nH]n1)*; Oxalyl = O=C(C(=O)[*:2])[*:1]; Dap = NC[C@H](N)C(=O)O

What was measured:
Beta-secretase 1 [1] = biological target: T1, Beta-secretase 1 (Homo sapiens, UniProt P56817); experiment: Inhibitory activity against beta-secretase 1 (BACE1) at 2 uM
Beta-secretase 1 [2] = biological target: T1, Beta-secretase 1; experiment: Inhibitory activity against beta-secretase 1 (BACE1) at 0.2 uM
Beta-secretase 1 [3] = biological target: T1, Beta-secretase 1; experiment: Inhibitory activity against beta-secretase 1 (BACE1)

T1 sequence (P56817 whole entry): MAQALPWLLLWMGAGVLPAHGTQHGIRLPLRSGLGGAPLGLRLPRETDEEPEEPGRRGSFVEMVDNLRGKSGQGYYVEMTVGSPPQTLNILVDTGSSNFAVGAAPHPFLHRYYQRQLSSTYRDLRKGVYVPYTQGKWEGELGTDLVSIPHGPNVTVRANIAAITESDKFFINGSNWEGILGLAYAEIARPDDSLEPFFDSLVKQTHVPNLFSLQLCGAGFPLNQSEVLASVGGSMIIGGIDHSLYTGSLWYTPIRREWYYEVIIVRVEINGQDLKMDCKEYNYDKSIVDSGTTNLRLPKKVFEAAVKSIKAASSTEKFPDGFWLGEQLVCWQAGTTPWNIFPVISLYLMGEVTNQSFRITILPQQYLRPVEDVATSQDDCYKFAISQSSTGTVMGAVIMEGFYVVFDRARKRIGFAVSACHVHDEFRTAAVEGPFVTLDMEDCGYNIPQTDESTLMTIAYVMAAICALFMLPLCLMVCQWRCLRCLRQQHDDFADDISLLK

SMILES | inhibition (Beta-secretase 1 [1]) | inhibition (Beta-secretase 1 [2]) | IC50 (Beta-secretase 1 [3])
CC(C)C[C@H](NC(=O)[C@@H](NC(=O)[C@@H](N)CNC(=O)C(=O)O)C(C)C)C(=O)N[C@@H](Cc1ccccc1)[C@@H](O)C(=O)N[C@@H](CC(=O)O)C(=O)N[C@@H](C)C(=O)N[C@@H](CCC(=O)O)C(=O)O (H-[Dap](Oxalyl)VL[β3hPhe(2R-OH)]DAE-OH) | 96.7% | 57.6% | 84 nM
CC(C)C[C@H](NC(=O)[C@@H](NC(=O)[C@@H](N)CNC(=O)c1nn[nH]n1)C(C)C)C(=O)N[C@@H](Cc1ccccc1)[C@@H](O)C(=O)Nc1cc(C(=O)O)cc(C(=O)O)c1 | 100% | 98.1% | 
CC(C)C[C@H](NC(=O)[C@@H](NC(=O)[C@@H](N)CNC(=O)c1nn[nH]n1)C(C)C)C(=O)N[C@@H](Cc1ccccc1)[C@@H](O)C(=O)N[C@@H](CC(=O)O)C(=O)N[C@@H](C)C(=O)N[C@@H](CCC(=O)O)C(=O)O (H-[Dap](Tetrazole5carbonyl)VL[β3hPhe(2R-OH)]DAE-OH) | 93% | 73.1% | 
CC(C)C[C@H](NC(=O)[C@@H](NC(=O)[C@@H](N)CNC(=O)c1nnn[nH]1)C(C)C)C(=O)N[C@@H](Cc1ccccc1)[C@@H](O)C(=O)Nc1cccc(C(=O)O)c1 |  |  | 8.2 nM
CC(C)C[C@H](NC(=O)[C@@H](NC(=O)[C@H](CN)NC(=O)c1nn[nH]n1)C(C)C)C(=O)N[C@@H](Cc1ccccc1)[C@@H](O)C(=O)N[C@@H](CC(=O)O)C(=O)N[C@@H](C)C(=O)N[C@@H](CCC(=O)O)C(=O)O (Tetrazole5carbonyl-[Dap]VL[β3hPhe(2R-OH)]DAE-OH) | 23.2% |  | 
CC(C)C[C@H](NC(=O)[C@@H](NC(=O)[C@H](CN)NC(=O)C(=O)O)C(C)C)C(=O)N[C@@H](Cc1ccccc1)[C@@H](O)C(=O)N[C@@H](CC(=O)O)C(=O)N[C@@H](C)C(=O)N[C@@H](CCC(=O)O)C(=O)O (Oxalyl-[Dap]VL[β3hPhe(2R-OH)]DAE-OH) | 75.2% |  | 
CC(C)C[C@H](NC(=O)[C@@H](NC(=O)[C@@H](N)CNC(=O)c1nnn[nH]1)C(C)C)C(=O)N[C@@H](Cc1ccccc1)[C@@H](O)C(=O)Nc1cc(C(=O)O)cc(C(=O)O)c1 |  |  | 3.9 nM
CC(C)C[C@H](NC(=O)[C@@H](NC(=O)[C@@H](N)CNC(=O)C(=O)O)C(C)C)C(=O)N[C@@H](Cc1ccccc1)[C@@H](O)C(=O)Nc1cccc(C(=O)O)c1 | 98.4% | 85.5% | 16 nM
CC(C)C[C@H](NC(=O)[C@@H](NC(=O)[C@@H](N)CNC(=O)C(=O)O)C(C)C)C(=O)N[C@@H](Cc1ccccc1)[C@@H](O)C(=O)Nc1cc(C(=O)O)cc(C(=O)O)c1 | 99.8% | 96.7% | 4.7 nM

Now from value to compound, other results behind:

inhibition (Beta-secretase 1 [1]) | inhibition (Beta-secretase 1 [2]) | SMILES | IC50 (Beta-secretase 1 [3])
87.9% | 58.6% | CC(C)C[C@H](NC(=O)[C@@H](NC(=O)[C@H](CN)NC(=O)C(=O)O)C(C)C)C(=O)N[C@@H](Cc1ccccc1)[C@@H](O)C(=O)Nc1cccc(C(=O)O)c1 | 
99% | 87.1% | CC(C)C[C@H](NC(=O)[C@@H](NC(=O)[C@@H](N)CNC(=O)c1nn[nH]n1)C(C)C)C(=O)N[C@@H](Cc1ccccc1)[C@@H](O)C(=O)Nc1cccc(C(=O)O)c1 | 
0% |  | CC(C)C[C@H](NC(=O)[C@@H](NC(=O)[C@H](CN)NC(=O)c1nn[nH]n1)C(C)C)C(=O)N[C@@H](Cc1ccccc1)[C@@H](O)C(=O)Nc1cccc(C(=O)O)c1 | 
